Where two headings read alike, the source gives them in different places. Where a SMILES comes first, the peptide text is derived from it. Where no end group is shown, it is not given here. [ ]: non-standard residue; d: D form.
Experiments:
CHO-K1 cells [1] = settings: up to 50 μM; for cytotoxicity of peptides alone, cell viability: 24 h and 48 h incubation; for cytotoxicity of peptides alone, LDH release (membrane integrity): 2 h and 24 h incubation
Procedure: Cell viability effect on CHO-K1 cells of Phylomer™ CPPs and variants compared to the canonical CPPs TAT and Penetratin following 24 h (A) and 48 h (B) incubation with peptides. Cell viability was assessed by resazurin reduction potential. Membrane integrity of CHO-K1 cells were assessed by LDH release following 2 h (C) and 24 h (D) incubation with peptides. […] Results are representative of 3 independent experiments. Error bars represent standard deviation from the mean of triplicate samples.
(§1) Cells in were seeded at 2000-6000 cells/well, depending on cell line, in 96-well plates (PAP assays: CHO-K1, 3000 cells/well; peptide cytotoxicity assays: CHO-K1, 5000 cells/well; Bouganin assay: CHO-K1 and CHO-K1 EGFR, 2500 cells/well; ^DPMIα assays: T47D, 5000 cells/well; Omomyc assays: all cell lines, 5000 cells/well). In brief, adherent cells were allowed to attach for 24 h prior to addition of treatments whereas suspension cell lines were treated immediately following seeding. Following 2-48 h incubations with treatments, cell viability was measure by a variety of methods. Membrane integrity was assessed by the release of LDH into the media via the CytoTox-ONE reagent (Promega). Metabolic activity was measured either by resazurin reduction potential using PrestoBlue (LifeTech) or ATP activity using CellTitre-Glo (Promega). All assays followed manufacturer's instructions. IC50 values were calculated using Prism (version 7.0a, GraphPad).
When delivering therapeutics into a cell, it is critical that the delivery molecule itself is not cytotoxic. To assess innate cytotoxicity we tested the effects of FPPs alone on cell viability at 24 h (FIG. 6A) and 48 h (FIG. 6B) after addition of peptides. The effects of FPPs on membrane stability of cells was also assessed in a LDH enzymatic assay, measuring release of LDH from cells into surrounding media at 2 h (FIG. 6C) and 24 h (FIG. 6D) after treatment with peptides.

CHO-K1 cells [2] = assay: PAP cell viability assay: SpyC_PAP conjugated to CPP_SpyT, resazurin reduction; type: cell-based; settings: for cell death caused by SpyC-PAP conjugate: compared to TAT or Penetratin-delivered SpyC_PAP
Procedure: (§2) With the exception of SpyC PAS proteins, conjugations were set up at a SpyCatcher:SpyTag ratio of 1:1.25, with a 40 μM final concentration for the SpyCatcher moiety. SpyC proteins and SpyTag peptides were incubated for 2 h at 22° C. with gentle mixing, and then left at 4° C. overnight. Conjugation efficiencies were analyzed on 4-16% SDS-PAGE gels stained with Gel Code Blue Reagent (Thermo Fisher Scientific). SpyC_PAS proteins were conjugated with SpyTag peptides at ratio 1:1.1, mixed and incubated at room temperature for 30 mins before being stored overnight at 4° C.
(§3) All assays followed manufacturer's instructions.
SpyC-PAP/CPP-SpyT complex IC50s were ranked according to potency to determine impact of changes to primary CPP sequence. Sequence variations positively impacting on potency are retained for further optimization, whereas sequence variations deleterious to potency are excluded, thus establishing sequence activity relationships for the CPP peptide. SpyC_BLA/CPP-SpyT complex median cell fluorescence at 4 μM concentration was ranked according to intensity to determine impact of changes to primary CPP sequence. Sequence variations positively impacting on intensity were retained for further optimization, whereas sequence variations deleterious to intensity were excluded, thus establishing sequence activity relationships for the CPP peptide.
For the first readout of functional activity we chose the proapoptotic peptide PAP (SEQ ID NO:61; Ellerby et al 1999, Nat Med, 5, 1032-1038) as a functional cargo and expressed it recombinantly, fused to SpyCatcher (SEQ ID NO:83) (abbreviated as “SpyC_PAP” or “SpyC-PAP”; SEQ ID NO:62) to enable subsequent conjugation with synthetic CPP-SpyTag fusion proteins. Mammalian cells were incubated with SpyC_PAP-CPP protein conjugates, which induce apoptosis if successfully delivered into cells. […] As a representative member of the largest cluster of sequences from the screen, FPP1 was selected for additional optimization studies.

T47D cells [3] = settings: for IC50: 48 h; for delivery of DPMIα, comparison of 10 μM peptide treatments: FIG. 8B, one-way ANOVA; for effect on T47D cell viability of CPP-delivered DPMIα: 48 h incubation, FIG. 8A
Procedure: Cell viability was assessed by resazurin reduction potential after 48 h incubation with peptides. […] Results are representative of 3 independent experiments.
as §1
^DPMIα is a small peptide (SEQ ID NO:105), which when conjugated to cationic CPPs can internalize into cells, bind to MDM2 (acting as a dominant negative peptide) and lift p53 suppression causing indiscriminate cytotoxicity (Liu, supra).

T47D cells [4] = assay: Cell viability assay of FPP1.1_SpyT variants conjugated to SpyC_PAP, resazurin reduction; type: cell-based; settings: 48 h incubation, FIG. 5
Procedure: Cell viability assay on T47D cells of FPP1.1_SpyT peptide compared to retro-inverso (RI) and dimerised variants conjugated to the SpyCatcher_PAP (SpyC_PAP) mitochondriotoxic cargo. T47D cells were seeded at 6×10^3 cells per well and treated the following day with FPP-Toxic cargo conjugates. Following 48 h incubation cell viability was assessed by resazurin reduction potential.
as §2, §3

[5] = PAP assay, variant_SpyT/SpyC_PAP

## CC[C@H](C)[C@H](NC(=O)[C@H](CCCCN)NC(=O)[C@@H](NC(=O)[C@H](CCC(N)=O)NC(=O)[C@@H](N)CCCNC(=N)N)[C@@H](C)CC)C(=O)N[C@@H](Cc1c[nH]c2ccccc12)C(=O)N[C@@H](Cc1ccccc1)C(=O)N[C@@H](CCC(N)=O)C(=O)N[C@@H](CC(N)=O)C(=O)N[C@@H](CCCNC(=N)N)C(=O)N[C@@H](CCCNC(=N)N)C(=O)N[C@@H](CCSC)C(=O)N[C@@H](CCCCN)C(=O)N[C@@H](Cc1c[nH]c2ccccc12)C(=O)N[C@@H](CCCCN)C(=O)N[C@@H](CCCCN)C(=O)NCC(=O)N[C@@H](C)C(=O)N[C@@H](CO)C(=O)N[C@@H](C)C(=O)N[C@@H](Cc1c[nH]cn1)C(=O)N[C@H](C(=O)N[C@H](C(=O)N[C@@H](CCSC)C(=O)N[C@H](C(=O)N[C@@H](CC(=O)O)C(=O)N[C@@H](C)C(=O)N[C@@H](Cc1ccc(O)cc1)C(=O)N[C@@H](CCCCN)C(=O)N1CCC[C@H]1C(=O)N[C@H](C(=O)N[C@@H](CCCCN)C(=O)NCC(=O)O)[C@@H](C)O)C(C)C)C(C)C)[C@@H](C)CC [Penetratin CPP-SpyTag fusion]
CHO-K1 cells [1]
  cytotoxicity of peptides alone, cell viability: some inconsistent cytotoxicity at the highest concentrations

## PLRPRRPRTQERRRRQPPRPRRPRTQERRRRQPPRPRR (Amino acid sequence of a Sindbis virus capsid-derived CPP (SAR 17)) [FPP1-SAR17]
CHO-K1 cells [2]; [5]
  loss/reduction of activity (potency) relative to parental FPP1: 1.5 fold

## CC(C)C[C@@H](NC(=O)[C@@H](CC(C)C)NC(=O)[C@@H](CCCCN)NC(=O)[C@@H](CCC(=O)O)NC(=O)[C@@H](CC(C)C)NC(=O)[C@@H](CC(N)=O)NC(=O)[C@@H](C)NC(=O)[C@@H](Cc1ccc(O)cc1)NC(=O)[C@@H](Cc1c[nH]c2ccccc12)NC(=O)[C@@H](CC(N)=O)NC(=O)[C@H](NC(=O)[C@H](CO)NC(=O)[C@H](C)NC(=O)CNC(=O)[C@H](CCCNC(=N)N)NC(=O)[C@H](CCCNC(=N)N)NC(=O)[C@H](CCCNC(=N)N)NC(=O)[C@H](CCC(N)=O)NC(=O)[C@H](CCCNC(=N)N)NC(=O)[C@H](CCCNC(=N)N)NC(=O)[C@H](CCCCN)NC(=O)[C@H](CCCCN)NC(=O)[C@H](CCCNC(=N)N)NC(=O)CN)[C@H](C)O)C(=O)N[C@H](CCCNC(=N)N)C(=O)O [TAT_^DPMIα, GRKKRRQRRRGAStnwyanlekllr, reference compound] (H-GRKKRRQRRRGAS[dT][dN][dW][dY][dA][dN][dL][dE][dK][dL][dL][dR]-OH; N-terminus and C-terminus assumed)
T47D cells [3]
  IC50: 36.6 µM

## PLKPKKPKTQEKKKKQPPKPKKPKTQEKKKKQPPKPKR (Amino acid sequence of a Sindbis virus capsid-derived CPP (SVC27)) [FPP1]
CHO-K1 cells [2]; CPP_SpyT conjugated to SpyC_PAP, resazurin, FIG. 4A
  potency of FPP-delivered PAP conjugate (decrease in CHO-K1 cell viability), order of potency: greatest potency
CHO-K1 cells [2]; FIG. 4A
  cell death caused by SpyC-PAP conjugate: significant cell death
T47D cells [3]
  delivery of DPMIα, comparison of 10 μM peptide treatments: significantly improved delivery compared to TAT
  effect on T47D cell viability of CPP-delivered DPMIα: dose dependent decrease in T47D cell viability

## C[C@@H](O)[C@H](NC(=O)[C@H](CCCCN)NC(=O)[C@@H]1CCCN1C(=O)[C@H](CCCCN)NC(=O)[C@H](CCCCN)NC(=O)[C@@H]1CCCN1C(=O)[C@H](CCCCN)NC(=O)[C@@H]1CCCN1C(=O)[C@@H]1CCCN1C(=O)[C@H](CCC(N)=O)NC(=O)[C@H](CCCCN)NC(=O)[C@H](CCCCN)NC(=O)[C@H](CCCCN)NC(=O)[C@@H](N)CCCCN)C(=O)N[C@@H](CCC(N)=O)C(=O)N[C@@H](CCC(=O)O)C(=O)N[C@@H](CCCCN)C(=O)N[C@@H](CCCCN)C(=O)N[C@@H](CCCCN)C(=O)N[C@@H](CCCCN)C(=O)N[C@@H](CCC(N)=O)C(=O)N1CCC[C@H]1C(=O)N1CCC[C@H]1C(=O)N[C@@H](CCCCN)C(=O)N1CCC[C@H]1C(=O)N[C@@H](CCCCN)C(=O)N[C@@H](CCCNC(=N)N)C(=O)O [FPP1.1] (H-KKKKQPPKPKKPKTQEKKKKQPPKPKR-OH)
T47D cells [4]
  IC50: 8.7 µM
CHO-K1 cells [1]
  cytotoxicity of peptides alone, cell viability: lack of cytotoxicity

## CC[C@H](C)[C@H](NC(=O)[C@H](Cc1c[nH]cn1)NC(=O)[C@H](C)NC(=O)[C@H](CO)NC(=O)[C@H](C)NC(=O)CNC(=O)[C@H](CCCNC(=N)N)NC(=O)[C@H](CCCNC(=N)N)NC(=O)[C@H](CCCNC(=N)N)NC(=O)[C@H](CCC(N)=O)NC(=O)[C@H](CCCNC(=N)N)NC(=O)[C@H](CCCNC(=N)N)NC(=O)[C@H](CCCCN)NC(=O)[C@H](CCCCN)NC(=O)[C@H](CCCNC(=N)N)NC(=O)CN)C(=O)N[C@H](C(=O)N[C@@H](CCSC)C(=O)N[C@H](C(=O)N[C@@H](CC(=O)O)C(=O)N[C@@H](C)C(=O)N[C@@H](Cc1ccc(O)cc1)C(=O)N[C@@H](CCCCN)C(=O)N1CCC[C@H]1C(=O)N[C@H](C(=O)N[C@@H](CCCCN)C(=O)NCC(=O)O)[C@@H](C)O)C(C)C)C(C)C [TAT-SpyTag fusion]
CHO-K1 cells [1]
  cytotoxicity of peptides alone, LDH release (membrane integrity): no cytotoxic activity
  cytotoxicity of peptides alone, cell viability: no cytotoxic activity

## TLKTKKTKTQEKKKKQTTKTKKTKTQEKKKKQTTKTKR (Amino acid sequence of a Sindbis virus capsid-derived CPP (SAR16 P_T)) [FPP1-SAR16]
CHO-K1 cells [2]; [5]
  improvement of activity relative to full length FPP1: 1.7 fold

## KKQPPKPKKPKTQEKKKKQPPKPKR (Amino acid sequence of a Sindbis virus capsid-derived CPP (SAR5)) [FPP1-SAR5]
CHO-K1 cells [2]; [5]
  loss/reduction of activity (potency) relative to parental FPP1: 3 fold

## KTQEKKKKQTTKTKKTKTQEKKKKQTTKTKR (Amino acid sequence of a Sindbis virus capsid-derived CPP (1746P_T)) [FPP1-P_T]
CHO-K1 cells [2]; PAP assay, relative to parental FPP1
  effect of truncation or mutation on CPP potency: unaffected

## PLKPKKPKTQEKKKKQPPKPKKPKTQEKKKKQPPKPKRGAS[dT][dN][dW][dY][dA][dN][dL][dE][dK][dL][dL][dR] [FPP1_^DPMIα]
T47D cells [3]
  IC50: 9.1 µM
  effect on T47D cell viability of CPP-delivered DPMIα: significantly more cytotoxic than ^DPMIα alone

## KKKKQPPKPKKPKTQEKKKKQPPKPKRGASAHIVMVDAYKPTKGASKKKKQPPKPKKPKTQEKKKKQPPKPKR [dimerised FPP1.1]
T47D cells [4]
  IC50: 6.3 µM

## GRKKRRQRRR (Amino acid sequence of TAT CPP) [reference compound]
T47D cells [3]
  delivery of DPMIα, comparison of 10 μM peptide treatments: significantly improved compared to DPMIα peptide alone
CHO-K1 cells [1]
  cytotoxicity of peptides alone, LDH release (membrane integrity): non-toxic
  cytotoxicity of peptides alone, cell viability: non-toxic

## PLKPKKPKTQEKKKKQPPKPKKPKTQEKKKKQPPKPK (Amino acid sequence of a Sindbis virus capsid-derived CPP (SAR12)) [FPP1-SAR12]
CHO-K1 cells [2]; [5]
  loss/reduction of activity (potency) relative to parental FPP1: approximately 2.2 fold

## SpyC only control: SpyCatcher control without CPP [reference compound]
CHO-K1 cells [2]; FIG. 4A
  cell death caused by SpyC-PAP conjugate: no effect
